Experiments:
Taq DNA polymerase [1] = target: T1, Taq DNA polymerase (Thermus aquaticus, UniProt P19821); assay: TaqMan qPCR kinetics (double-reciprocal plot); IC50 also by TaqMan qPCR and EvaGreen primer extension assay; assay type: biochemical
T1 construct: gene polA

Taq DNA polymerase [2] = target: T1, Taq DNA polymerase; assay: TaqMan qPCR (IC50 […]); EvaGreen primer extension assay (IC50 […]); assay type: biochemical

T1 sequence (P19821 whole entry): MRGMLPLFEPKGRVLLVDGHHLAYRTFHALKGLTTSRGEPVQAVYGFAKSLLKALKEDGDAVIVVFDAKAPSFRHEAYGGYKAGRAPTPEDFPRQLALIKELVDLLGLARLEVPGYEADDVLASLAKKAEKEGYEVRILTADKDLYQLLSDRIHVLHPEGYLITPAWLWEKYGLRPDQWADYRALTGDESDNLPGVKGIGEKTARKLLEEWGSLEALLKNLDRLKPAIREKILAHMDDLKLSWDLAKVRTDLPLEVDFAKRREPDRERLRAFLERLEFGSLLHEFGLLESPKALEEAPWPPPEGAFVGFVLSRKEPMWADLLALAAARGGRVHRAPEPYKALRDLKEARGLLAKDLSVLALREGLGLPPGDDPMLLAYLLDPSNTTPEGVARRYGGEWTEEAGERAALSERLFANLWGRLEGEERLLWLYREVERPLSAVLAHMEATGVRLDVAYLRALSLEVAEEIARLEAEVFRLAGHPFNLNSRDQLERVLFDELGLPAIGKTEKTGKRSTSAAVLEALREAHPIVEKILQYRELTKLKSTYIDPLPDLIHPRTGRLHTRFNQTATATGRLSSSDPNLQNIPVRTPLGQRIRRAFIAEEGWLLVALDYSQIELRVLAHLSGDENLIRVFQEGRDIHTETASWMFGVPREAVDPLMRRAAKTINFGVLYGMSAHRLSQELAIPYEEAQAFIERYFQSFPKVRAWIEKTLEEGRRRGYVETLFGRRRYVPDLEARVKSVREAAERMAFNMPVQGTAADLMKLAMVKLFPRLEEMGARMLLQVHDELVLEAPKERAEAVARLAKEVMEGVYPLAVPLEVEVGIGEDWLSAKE

Ki (Taq DNA polymerase [1]) [µM]	IC50 (Taq DNA polymerase [2]) [µM]	SMILES
9.7 ± 1.1	–	Cc1cn([C@@H]2O[C@@]3(CO)CO[C@@H]2[C@@H]3O)c(=O)[nH]c1=O [2',4'-bridged thymidine]
–	300 ± 100	Nc1ccn([C@H]2CC[C@@H](COP(=O)(O)OP(=O)(O)OP(=O)(O)O)O2)c(=O)n1 [ddCTP]

From paper PMC4731470, “Inhibitory Effect of Bridged Nucleosides on Thermus aquaticus DNA Polymerase and Insight into the Binding Interactions” (PLoS ONE, 2016)
